Results from PubChem BioAssay (NCI).
Where “and” joins values, the source holds several entries; their conditions need not be identical. Equal values may be shown once.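 Growth conditions: 96-well plates. Treatment: test compound, 48 hours, 5 concentrations. Analysis: linear interpolation between bracketing concentrations; unreached endpoints set to highest concentration. GI50: concentration for 50% inhibition of growth. The concentration for full growth arrest is given as TGI.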

Assays:
Experiment in all cases: growth of human tumour cells (NCI), 48 h
CCRF-CEM leukemia = tested on: CCRF-CEM leukemia
EKVX NSCLC = tested on: EKVX NSCLC
A549 NSCLC = tested on: A549 NSCLC
MCF7 breast = tested on: MCF7 breast
HCC-2998 colon = tested on: HCC-2998 colon
UACC-62 melanoma = tested on: UACC-62 melanoma
NCI/ADR-RES ovarian = tested on: NCI/ADR-RES ovarian
OVCAR-8 ovarian = tested on: OVCAR-8 ovarian
M14 melanoma = tested on: M14 melanoma
OVCAR-5 ovarian = tested on: OVCAR-5 ovarian

SMILES | GI50 (CCRF-CEM leukemia) [µM] | TGI (CCRF-CEM leukemia) [µM] | GI50 (EKVX NSCLC) [µM] | TGI (EKVX NSCLC) [µM] | GI50 (A549 NSCLC) [µM] | TGI (A549 NSCLC) [µM] | GI50 (MCF7 breast) | TGI (MCF7 breast) | GI50 (HCC-2998 colon) [µM] | TGI (HCC-2998 colon) [µM] | GI50 (UACC-62 melanoma) [µM] | TGI (UACC-62 melanoma) [µM] | GI50 (NCI/ADR-RES ovarian) [µM] | TGI (NCI/ADR-RES ovarian) [µM] | GI50 (OVCAR-8 ovarian) [µM] | TGI (OVCAR-8 ovarian) [µM] | GI50 (M14 melanoma) [µM] | TGI (M14 melanoma) [µM] | GI50 (OVCAR-5 ovarian) [µM] | TGI (OVCAR-5 ovarian) [µM]
CN1CCN(c2ccc(Nc3ncc4cc(C#N)c(=O)n(C5CCCC5)c4n3)cc2)CC1 | 0.597 | > 20.9 | 2.93 | > 100 | 2.05 | > 100 | 0.346 µM | > 100 µM | 2.8 | > 100 | 4 | > 100 | 2.94 | > 33 | 3.18 | > 47.9 | 1.39 | > 100 | 0.942 | > 100
O=C(N/N=C/c1c(Cl)cccc1Cl)c1ccc(C(F)(F)F)nc1Nc1cccc(C(F)(F)F)c1 | 0.34 | 8.98 | 0.886 | > 27.9 | 1.54 | > 36.1 | 1.03 µM | > 35.8 µM | 3.97 | > 100 | 1.39 | 4.12 | 0.616 | – | 1.07 | > 45.6 | 1.6 | > 31.1 | 4.06 | > 30.2
O=C(NO)c1ccc(CN(c2cnccn2)c2cnccn2)cc1 | 11.2 | > 100 | 15.9 | 36.7 | 13.9 | 36.5 | 12.1 µM | > 100 µM | 13.2 | 26.8 | 6.71 | 28.5 | 10.3 | 37.4 | 3.75 | 17.2 | 11.1 | 28.3 | 14.7 | 52.6
CCCCCc1ccc(S(=O)(=O)Nc2cc(-c3csc(NC(C)=O)n3)ccc2N2CCN(C)CC2)cc1 | 4.82 | 20.3 | 5.65 | 10.7 | 5.11 | 11.8 | 1.6 µM | 6.45 µM | 1.62 | 5.47 | 3.83 | 8.04 | 4.54 | 9.18 | 5.82 | 13.1 | 2 | 7.73 | 5 | 9.55
Cc1ccc(S(=O)(=O)NC(=O)NC2=NC(C)(C)N(c3ccc(Cl)c(Cl)c3)C(N)=N2)cc1 | – | > 100 | – | > 100 | – | > 100 | – | > 100 µM | – | > 100 | – | > 100 | – | > 100 | – | > 100 | – | > 100 | – | > 100
S=C1SC2=Nc3ccccc3CN2C2=NCCN12 | 36.7 | > 100 | > 100 | > 100 | > 100 | > 100 | 51.5 µM | > 100 µM | > 100 | > 100 | 72.5 | > 100 | > 100 | > 100 | > 100 | > 100 | > 100 | > 100 | > 100 | > 100
CCCCCCCCCCN1CCC(N2CCCCC2)CC1 | 2.08 | 9.48 | 4.37 | 18.3 | 3.74 | 12.1 | 1.54 µM | 3.64 µM | 2.21 | 5.9 | 1.76 | 3.4 | 6.76 | 20.2 | 3.81 | 14 | 1.72 | – | 3.74 | 14.4
O=C(Nc1ccc(Cl)c(Cl)c1)Nc1ccccc1O | 3.35 | 68.7 | 18.2 | 61.5 | 6.23 | 22.5 | 4.14 µM | 21.3 µM | 5.56 | 19.6 | 5.12 | 19.8 | 3.59 | 28.5 | 5.1 | 32.4 | 17.7 | 61.9 | 15.7 | 53.2
O=c1[nH]c(=O)n([C@H]2CCCO2)cc1F | 527 | > 5000 | > 2060 | > 5000 | 625 | > 5000 | 575 µM | > 5000 µM | 1010 | > 3020 | 2040 | > 5000 | 3030 | > 5000 | 2270 | > 5000 | 1450 | > 5000 | 2660 | > 5000
Cc1cc(C)n(-c2nnc3n2N=C(c2ccc(-c4ccccc4)cc2)CS3)n1 | 3.12 | > 100 | – | – | 3.83 | > 100 | 2.84 µM | > 100 µM | 5.14 | > 100 | 2.49 | 6.98 | 3.09 | > 100 | 3.51 | > 100 | – | – | 5.3 | > 100
Cn1c(=O)c2c(ncn2CC(=O)Nc2ccc(-c3ccccc3)nn2)n(C)c1=O | > 100 | > 100 | > 100 | > 100 | > 100 | > 100 | > 100 µM | > 100 µM | > 100 | > 100 | 84.7 | > 100 | > 100 | > 100 | > 100 | > 100 | 10.4 | > 100 | > 100 | > 100
COC(C(=O)[C@@H](O)[C@@H](C)O)[C@@H]1Cc2cc3cc(O[C@H]4C[C@@H](O[C@H]5C[C@@H](O)[C@H](O)C(C)O5)[C@H](O)C(C)O4)c(C)c(O)c3c(O)c2C(=O)[C@H]1O[C@H]1C[C@@H](O[C@H]2C[C@@H](O[C@H]3C[C@@H](O)[C@H](OC)C(C)O3)[C@@H](O)C(C)O2)[C@H](O)C(C)O1 (some centres not stated) | 0.0425 | > 13.1 | – | > 33.3 | – | > 33.3 | 0.00728 µM | > 33.3 µM | 0.0293 | 0.114 | 0.00659 | 0.0217 | 6.93 | > 33.3 | 0.0286 | > 33.3 | 0.0372 | 0.349 | – | > 33.3
O=C(CSC(c1ccccc1)c1ccccc1)N/N=C/c1ccco1 | 2.48 | 22 | 2.44 | > 5.19 | 1.54 | 5.28 | 1.74 µM | > 5.22 µM | 1.62 | 3.58 | 2.52 | 16.2 | – | 1.24 | 1.84 | 6.67 | 1.49 | 2.69 | 1.97 | 5.24
COc1ccc2c3c(Nc4ccc(/C(C)=N/O)cc4)[nH]c4ccccc4c-3c(N=O)c2c1 | 1.09 | 2.92 | 3.74 | 20.4 | 1.45 | 6.08 | 0.843 µM | > 100 µM | 1.78 | 3.27 | 7.91 | 23.7 | 5.78 | 20.2 | 3.55 | 20.2 | 2.44 | 5.64 | 3.02 | 12.2
CCCCCCCCCCCCOC1C(C(CC(=O)NCCN2CCCC2)NS(=O)(=O)c2cc(Cl)cc(Cl)c2)OC2OC(C)(C)OC21 (configuration not stated) | 0.00586 | 0.0349 | 1.87 | 3.49 | 2.5 | 6.41 | 1.98 µM and 1.73 µM | 3.91 µM and 3.51 µM | 2.14 | 4.56 | 1.85 | 3.3 | 2.04 | 4.08 | 2.21 | 4.88 | 1.71 | 3.45 | 2.17 | 4.34
Nc1nc(N)c2cc(CNc3ccc(C(=O)NC(CC(=O)O)C(=O)O)c(Cl)c3)ccc2n1 (configuration not stated) | 0.05 | > 500 | > 500 | > 500 | 0.05 | > 500 | – | > 500 µM | – | > 77.5 | 0.05 | > 500 | 0.05 | > 500 | 0.05 | > 500 | 0.05 | > 500 | 0.05 | > 500
C[C@]12CC[C@@H]3c4ccc(O)c([N+](=O)[O-])c4CC[C@H]3[C@@H]1CC[C@@H]2NS(=O)(=O)c1cccc(Br)c1 | 2.65 | 10.4 | – | – | 2.81 | 8.89 | 1.8 µM | 3.93 µM | 2.06 | 3.97 | 1.6 | 3.69 | 2.69 | 8.55 | 2.92 | 10.7 | 1.91 | 4.11 | 2.16 | 5.17
N#Cc1ccc(OC(=O)Nc2ccc(Cl)c(Cl)c2)cc1 | 3.08 | 16.1 | – | – | 3.43 | > 100 | 2.6 µM | 11.6 µM | 4.79 | 26.5 | 3.06 | 31.7 | 3.79 | > 100 | 3.3 | 44.8 | 4.3 | 59 | 5.79 | > 100
O=C1C(Cl)=C(Nc2ccccc2O)C(=O)N1Cc1ccccc1 | 14.5 | 32.7 | – | – | 20.3 | 46 | 24.5 µM | 64.6 µM | 20.9 | 35.3 | 19.1 | 46.4 | 24.6 | 57.1 | 18.3 | 34 | 18.4 | 32.3 | 18.5 | 32.7
